Measured values: patent US20220041627A1, “PRODRUGS OF ANTI-CANCER AND ANTI-AUTOIMMUNE DISEASES THERAPEUTIC AGENTS, AND METHODS OF MAKING AND USE THEREOF” (UNIVERSITY OF MARYLAND, BALTIMORE, priority 2018, published 2022)

What was measured:
Format in all cases: cell-based, human
M14 = experiment: NCI-60 growth inhibition, M14
Text: (§1) The anticancer effects of compounds 1a-1b against 60 human cancer cell lines (the Developmental Therapeutics Program of NCI) were studied. The cell lines were derived from different cancer types including leukemia, non-small-cell lung cancer, colon cancer, CNS cancer, melanoma, ovarian cancer, renal cancer, prostate cancer, and breast cancer (Table 1; the assay protocol can be found at: https://dtp.cancer.gov/default.htm). Compound 1a caused over 50% growth inhibition for most tested cell lines. […] Without wishing to be bound by any particular theory, it is believed that the differences in the anticancer effects between compounds 1a and 1b may be due to the more favorable cell membrane permeability of the boronic ester 1a.

SNB-19 = experiment: NCI-60 growth inhibition, SNB-19
Text: as §1

K-562 = experiment: NCI-60 growth inhibition, K-562
Text: as §1

NCI-H522 = experiment: NCI-60 growth inhibition, NCI-H522
Text: as §1

SN12C = experiment: NCI-60 growth inhibition, SN12C; details: Renal Cancer SN12C, 48 h
Text: as §1

HL-60(TB) = experiment: NCI-60 growth inhibition, HL-60(TB); details: Leukemia HL-60(TB), 48 h
Text: as §1

NCI-H226 = experiment: NCI-60 growth inhibition, NCI-H226
Text: as §1

TK-10 = experiment: NCI-60 growth inhibition, TK-10
Text: as §1

HOP-92 = experiment: NCI-60 growth inhibition, HOP-92
Text: as §1

PARP1 = experiment: Western blot of PARP1 in MCF7 cells; details: 48 h; for expression level of PARP1: compared to vehicle-treated cells; for level of cleavage of PARP1: compared to vehicle-treated controls
Description: FIGS. 4A and 4B illustrate the effect of compounds 1a-1b in apoptosis. FIG. 4A: immunofluorescence of DNA cleavage protein γH2Ax was enhanced by using 5-FU and prodrugs 1a-1b. FIG. 4B: immunoblot analysis of MCF-7 cells treated with 5-FU, prodrugs 1a-1b for apoptosis markers PARP1 and Caspase 3. The cells were treated for 48 h with the indicated concentrations of compounds.
Western Blot Analysis. Treated cells were washed once with PBS and lysed with RIPA lysis buffer (Santa Cruz Biotechnology, SCBT, #24948) supplemented with sodium orthovanadate, PMSF, protease and phosphatase inhibitor cocktails (Sigma Aldrich). Cell lysates were centrifuge for 15 min at 14,000×g and the supernatant was used for immunoblotting. Protein concentration was normalized for the samples and resolved on a 10-13% SDS-PAGE gel. Following transfer to nitrocellulose membrane, specific mouse primary antibodies from SCBT (PARP1 #sc-8007, caspase 3 #sc-7272) and Cell Signaling (cleaved PARP1 #9541, cleaved caspase-3 #9664) were added and incubated overnight. Secondary antibodies corresponding to the host of the primary antibodies was further incubated with the membrane and washed three times to remove excess antibodies. Odyssey Fc Imaging System (LI-COR, Lincoln, Nebr.) was used to quantify the chemiluminescent of the proteins.
To understand the mechanism of action of prodrugs 1a-1b, the impact of the treatment of compounds 1a-1b on the γH2AX formation in MCF7 cells were determined using immunofluorescence assay (FIG. 4A). […] The effects of prodrugs 1a-1b on the PARP1 and caspase 3 cleavage in MCF7 cells were also determined using Western blots assays (FIG. 4B). […] Treatment of 5-FU and compounds 1a-1b increased the levels of cleavage of PARP1 and caspase 3 in MCF7 cells, as compared with that in the vehicle-treated controls. Therefore, prodrugs 1a-1b, similar to 5-FU, can induce MCF7 cell apoptosis, which might contribute to their pharmacological actions.

COLO 205 = experiment: NCI-60 growth inhibition, COLO 205
Text: as §1

PC-3 = experiment: NCI-60 growth inhibition, PC-3
Text: as §1

SW-620 = experiment: NCI-60 growth inhibition, SW-620
Text: as §1

DU-145 = experiment: NCI-60 growth inhibition, DU-145
Text: as §1

LOX IMVI = experiment: NCI-60 growth inhibition, LOX IMVI; details: Melanoma LOX IMVI, 48 h
Text: as §1

MDA-MB-435 = experiment: NCI-60 growth inhibition, MDA-MB-435
Text: as §1

CAKI-1 = experiment: NCI-60 growth inhibition, CAKI-1
Text: as §1

T-47D = experiment: NCI-60 growth inhibition, T-47D; details: Breast Cancer T-47D, 48 h
Text: as §1

MCF7 = experiment: NCI-60 growth inhibition, MCF7
Text: as §1

HCC-2998 = experiment: NCI-60 growth inhibition, HCC-2998
Text: as §1

MDA-MB-231/ATCC = experiment: NCI-60 growth inhibition, MDA-MB-231/ATCC; details: Breast Cancer MDA-MB-231/ATCC, 48 h
Text: as §1

CCRF-CEM = experiment: NCI-60 growth inhibition, CCRF-CEM; details: Leukemia CCRF-CEM, 48 h
Text: as §1

RPMI-8226 = experiment: NCI-60 growth inhibition, RPMI-8226
Text: as §1

BT-549 = experiment: NCI-60 growth inhibition, BT-549
Text: as §1

NCI-H460 = experiment: NCI-60 growth inhibition, NCI-H460
Text: as §1

## O=c1[nH]c(=O)n(Cc2ccc(B(O)O)cc2)cc1F [Compound 1b, (4-((5-Fluoro-2,4-dioxo-3,4-dihydropyrimidin-I(2H)-yl)methyl)phenyl)boronic acid]
M14; Melanoma M14, 50 μM, 48 h
  Growth Inhibition (%): 17%
SNB-19; CNS Cancer SNB-19, 50 μM, 48 h
  Growth Inhibition (%): 11%
K-562; Leukemia K-562, 50 μM, 48 h
  Growth Inhibition (%): 18%
NCI-H522; Non-Small Cell lung Cancer NCI-H522, 50 μM, 48 h
  Growth Inhibition (%): 44%
SN12C; 50 μM
  Growth Inhibition (%): 7%
HL-60(TB); 50 μM
  Growth Inhibition (%): 11%
NCI-H226; Non-Small Cell lung Cancer NCI-H226, 50 μM, 48 h
  Growth Inhibition (%): 19%
TK-10; Renal Cancer TK-10, 50 μM, 48 h
  Growth Inhibition (%): 20%
HOP-92; Non-Small Cell lung Cancer HOP-92, 50 μM, 48 h
  Growth Inhibition (%): 35%
PARP1
  expression level of PARP1: significantly reduced
  level of cleavage of PARP1: increased
COLO 205; Colon Cancer COLO 205, 50 μM, 48 h
  Growth Inhibition (%): 8%
PC-3; Prostate Cancer PC-3, 50 μM, 48 h
  Growth Inhibition (%): 14%
SW-620; Colon Cancer SW-620, 50 μM, 48 h
  Growth Inhibition (%): 17%
DU-145; Prostate Cancer DU-145, 50 μM, 48 h
  Growth Inhibition (%): −6%
LOX IMVI; 50 μM
  Growth Inhibition (%): 8%
MDA-MB-435; Melanoma MDA-MB-435, 50 μM, 48 h
  Growth Inhibition (%): 65%
CAKI-1; Renal Cancer CAKI-1, 50 μM, 48 h
  Growth Inhibition (%): 12%
T-47D; 50 μM
  Growth Inhibition (%): 5%
MCF7; Breast Cancer MCF7, 50 μM, 48 h
  Growth Inhibition (%): 33%
HCC-2998; Colon Cancer HCC-2998, 50 μM, 48 h
  Growth Inhibition (%): 5%
MDA-MB-231/ATCC; 50 μM
  Growth Inhibition (%): 13%
CCRF-CEM; 50 μM
  Growth Inhibition (%): 7%
RPMI-8226; Leukemia RPMI-8226, 50 μM, 48 h
  Growth Inhibition (%): 2%
BT-549; Breast Cancer BT-549, 50 μM, 48 h
  Growth Inhibition (%): 30%
NCI-H460; Non-Small Cell lung Cancer NCI-H460, 50 μM, 48 h
  Growth Inhibition (%): 1%

## CC1(C)OB(c2ccc(Cn3cc(F)c(=O)[nH]c3=O)cc2)OC1(C)C [Compound 1a, 5-Fluoro-1-(4-(4,4,5,5-tetramethyl-1,3,2-dioxaborolan-2-yl)benzyl)pyrimidine-2,4(1H,3H)-dione]
M14; Homo sapiens, Melanoma M14, 48 h
  inhibition at 50 µM: 55%
SNB-19; Homo sapiens, CNS Cancer SNB-19, 48 h
  inhibition at 50 µM: 29%
K-562; Homo sapiens, K562, Leukemia K-562, 48 h
  inhibition at 50 µM: 70%
NCI-H522; Homo sapiens, Non-Small Cell lung Cancer NCI-H522, 48 h
  inhibition at 50 µM: 90%
SN12C; Homo sapiens
  inhibition at 50 µM: 19%
HL-60(TB); Homo sapiens
  inhibition at 50 µM: 68%
NCI-H226; Homo sapiens, Non-Small Cell lung Cancer NCI-H226, 48 h
  inhibition at 50 µM: 36%
TK-10; Homo sapiens, Renal Cancer TK-10, 48 h
  inhibition at 50 µM: 21%
HOP-92; Homo sapiens, Non-Small Cell lung Cancer HOP-92, 48 h
  inhibition at 50 µM: 67%
PARP1
  expression level of PARP1: significantly reduced
  level of cleavage of PARP1: increased
COLO 205; Homo sapiens, Colon Cancer COLO 205, 48 h
  inhibition at 50 µM: 64%
PC-3; Homo sapiens, Prostate Cancer PC-3, 48 h
  inhibition at 50 µM: 45%
SW-620; Homo sapiens, Colon Cancer SW-620, 48 h
  inhibition at 50 µM: 66%
DU-145; Homo sapiens, Prostate Cancer DU-145, 48 h
  inhibition at 50 µM: 16%
LOX IMVI; Homo sapiens
  inhibition at 50 µM: 47%
MDA-MB-435; Homo sapiens, Melanoma MDA-MB-435, 48 h
  inhibition at 50 µM: 96%
CAKI-1; Homo sapiens, Renal Cancer CAKI-1, 48 h
  inhibition at 50 µM: 25%
T-47D; Homo sapiens, T47D
  inhibition at 50 µM: 51%
MCF7; Homo sapiens, Breast Cancer MCF7, 48 h
  inhibition at 50 µM: 81%
HCC-2998; Homo sapiens, Colon Cancer HCC-2998, 48 h
  inhibition at 50 µM: 26%
MDA-MB-231/ATCC; Homo sapiens
  inhibition at 50 µM: 14%
CCRF-CEM; Homo sapiens
  inhibition at 50 µM: 62%
RPMI-8226; Homo sapiens, Leukemia RPMI-8226, 48 h
  inhibition at 50 µM: 32%
BT-549; Homo sapiens, Breast Cancer BT-549, 48 h
  inhibition at 50 µM: 60%
NCI-H460; Homo sapiens, Non-Small Cell lung Cancer NCI-H460, 48 h
  inhibition at 50 µM: 66%
